Converted amounts (≈) assume the structure as drawn. The source made the active and inactive calls. The calls are words filed in the database; no cut-off is given here.
What was measured:
Rattus norvegicus [1] = assay: Conversion of prodrug to parent in rat at 3 mg/kg, iv [100*AUC (JNJ-7706621) / AUC (prodrug)]; type: ADME, organism-based; design: dose 3 mg/kg, route intravenous; conditions: in vivo
[2] = target: Cyclin-dependent kinase 2 (Homo sapiens, UniProt P24941); assay: Inhibition of CDK2
HeLa = assay: Antiproliferative activity against human HeLa cells; type: functional, cell-based
HCT-116 = assay: Antiproliferative activity against human HCT116 cells; type: functional, cell-based
A-375 [3] = assay: Antiproliferative activity against human A375 cells; type: functional, cell-based
[4] = Solubility at pH 2.0; type: physicochemical; conditions: buffer
[5] = Solubility at pH 7.4; type: physicochemical; conditions: buffer
[6] = AUC in rat at 3 mg/kg, iv; type: ADME, organism-based; design: dose 3 mg/kg, route intravenous; conditions: plasma
[7] = Tmax in rat; type: ADME, organism-based; conditions: in vivo
[8] = Half life in rat; type: ADME, organism-based; conditions: in vivo
Rattus norvegicus [9] = assay: AUC in rat after administration as its prodrug N-(4-(5-amino-1-(2,6-difluorobenzoyl)-1H-1,2,4-triazol-3-ylamino)phenylsulfonyl)-3-(4-methylpiperazin-1-yl)propanamide at 3 mg/kg, iv; type: ADME, organism-based, Plasma; design: dose 3 mg/kg, route intravenous; conditions: in vivo
Rattus norvegicus [10] = assay: AUC in rat after administration as its prodrug 2-amino-N-(4-(5-amino-1-(2,6-difluorobenzoyl)-1H-1,2,4-triazol-3-ylamino)phenylsulfonyl)acetamide at 3 mg/kg, iv; type: ADME, organism-based, Plasma; design: dose 3 mg/kg, route intravenous; conditions: in vivo
Rattus norvegicus [11] = assay: AUC in rat after administration as its prodrug N-(4-(5-amino-1-(2,6-difluorobenzoyl)-1H-1,2,4-triazol-3-ylamino)phenylsulfonyl)-2-(2-methoxyethoxy)acetamide at 3 mg/kg, iv; type: ADME, organism-based, Plasma; design: dose 3 mg/kg, route intravenous; conditions: in vivo
Rattus norvegicus [12] = assay: AUC in rat after administration as its prodrug ethyl 4-(4-(5-amino-1-(2,6-difluorobenzoyl)-1H-1,2,4-triazol-3-ylamino)phenylsulfonamido)-4-oxobutanoate at 3 mg/kg, iv; type: ADME, organism-based, Plasma; design: dose 3 mg/kg, route intravenous; conditions: in vivo
Rattus norvegicus [13] = assay: AUC in rat after administration as its prodrug (R)-2-amino-N-(4-(5-amino-1-(2,6-difluorobenzoyl)-1H-1,2,4-triazol-3-ylamino)phenylsulfonyl)-3-hydroxypropanamide at 3 mg/kg, iv; type: ADME, organism-based, Plasma; design: dose 3 mg/kg, route intravenous; conditions: in vivo
[14] = Oral bioavailability in nude mice; type: ADME, organism-based; conditions: mouse, in vivo
[15] = Oral bioavailability in rat; type: ADME, organism-based; conditions: in vivo
A-375 [16] = assay: Antitumor activity in human melanoma A375 cell line using tumor xenograft model at 100 mg/kg, ip; type: functional; conditions: A-375, ip, route intraperitoneal, read-out: TGI
Rattus norvegicus [17] = assay: AUC in rat after administration as its prodrug N-(4-(5-amino-1-(2,6-difluorobenzoyl)-1H-1,2,4-triazol-3-ylamino)phenylsulfonyl)-3-morpholinopropanamide at 3 mg/kg, iv; type: ADME, organism-based, Plasma; design: dose 3 mg/kg, route intravenous; conditions: in vivo
Rattus norvegicus [18] = assay: AUC in rat after administration as its prodrug 4-(4-(5-amino-1-(2,6-difluorobenzoyl)-1H-1,2,4-triazol-3-ylamino)phenylsulfonamido)-4-oxobutanoic acid at 3 mg/kg, iv; type: ADME, organism-based, Plasma; design: dose 3 mg/kg, route intravenous; conditions: in vivo
[19] = target: Cyclin-dependent kinase 1 (Homo sapiens, UniProt P06493); assay: Inhibition of CDK1
A-375 [20] = assay: Antitumor activity in human melanoma A375 cell line using tumor xenograft model after 28 days at 100 mg/kg, ip; type: functional, organism-based; design: dose 100 mg/kg

Sequence of Cyclin-dependent kinase 1 (P06493 whole entry): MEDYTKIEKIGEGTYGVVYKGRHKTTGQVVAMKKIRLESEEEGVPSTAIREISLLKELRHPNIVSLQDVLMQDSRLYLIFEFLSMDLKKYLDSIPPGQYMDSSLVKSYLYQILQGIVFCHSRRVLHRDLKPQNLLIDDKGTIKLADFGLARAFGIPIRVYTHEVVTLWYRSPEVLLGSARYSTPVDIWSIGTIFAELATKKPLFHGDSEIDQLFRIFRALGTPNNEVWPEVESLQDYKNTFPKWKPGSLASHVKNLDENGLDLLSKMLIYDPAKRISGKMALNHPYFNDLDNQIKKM

Activity (Rattus norvegicus [1]) [%] | IC50 [2] [µM] | IC50 (HeLa) [µM] | IC50 (HCT-116) [µM] | IC50 (A-375 [3]) [µM] | solubility [4] [µg/mL] | solubility [5] [µg/mL] | AUC [6] [µM·h] | Tmax [7] [min] | half-life [8] [min] | Structure (SMILES) | also measured
4 | 0.266 | > 100 | > 10 | > 100 | > 1000 | 820 (≈ 1490 µM) | 23.2 | 4.8 | 9.6 | CN1CCN(CCC(=O)NS(=O)(=O)c2ccc(Nc3nc(N)n(C(=O)c4c(F)cccc4F)n3)cc2)CC1 | –
7 | 0.118 | 20.9 | 50.8 | > 100 | 14 (≈ 26.1 µM) | 4.7 (≈ 8.78 µM) | 20.5 | 4.8 | 9.6 | Nc1nc(Nc2ccc(S(=O)(=O)NC(=O)CCN3CCOCC3)cc2)nn1C(=O)c1c(F)cccc1F | –
31 | – | 14.9 | 36.9 | 9.45 | 130 (≈ 288 µM) | 200 (≈ 443 µM) | 11.8 | 4.8 | 9.6 | NCC(=O)NS(=O)(=O)c1ccc(Nc2nc(N)n(C(=O)c3c(F)cccc3F)n2)cc1 | –

The remaining lines, values behind:

Structure (SMILES) | Activity (Rattus norvegicus [1]) [%] | IC50 [2] [µM] | IC50 (HeLa) [µM] | IC50 (HCT-116) [µM] | IC50 (A-375 [3]) [µM] | solubility [4] [µg/mL] | solubility [5] [µg/mL] | AUC [6] [µM·h] | Tmax [7] [min] | half-life [8] [min] | also measured
CCOC(=O)CCC(=O)NS(=O)(=O)c1ccc(Nc2nc(N)n(C(=O)c3c(F)cccc3F)n2)cc1 | 40 | 0.062 | 60.2 | 40.1 | > 10 | 0.2 (≈ 0.383 µM) | 210 (≈ 402 µM) | 72.2 | 4.8 | 9.6 | –
Nc1nc(Nc2ccc(S(N)(=O)=O)cc2)nn1C(=O)c1c(F)cccc1F [JNJ-7706621] | – | – | 0.284 | 0.254 | 0.447 | 6 (≈ 15.2 µM) | – | – | 4.8 | 9.6 | AUC (Rattus norvegicus [9]): 0.93 µM·h; AUC (Rattus norvegicus [10]): 3.67 µM·h; AUC (Rattus norvegicus [11]): 7.62 µM·h; AUC (Rattus norvegicus [12]): 29.1 µM·h; AUC (Rattus norvegicus [13]): 0.63 µM·h; bioavailability [14]: 2%; bioavailability [15]: 8%; inhibition in vivo at 100 mg/kg (A-375 [16]): 95%; AUC (Rattus norvegicus [17]): 1.4 µM·h; AUC (Rattus norvegicus [18]): 18 µM·h
COCCOCC(=O)NS(=O)(=O)c1ccc(Nc2nc(N)n(C(=O)c3c(F)cccc3F)n2)cc1 | 18 | 0.247 | > 10 | > 10 | > 100 | 5.4 (≈ 10.6 µM) | > 1000 | 42.9 | 4.8 | 9.6 | –
Nc1nc(Nc2ccc(S(=O)(=O)NC(=O)[C@H](N)CO)cc2)nn1C(=O)c1c(F)cccc1F | 8 | 0.14 | 4.02 | 71.2 | > 10 | 440 (≈ 914 µM) | > 1000 | 8.15 | 4.8 | 9.6 | IC50 [19]: 1.41 µM
Nc1nc(Nc2ccc(S(=O)(=O)NC(=O)CCC(=O)O)cc2)nn1C(=O)c1c(F)cccc1F | 38 | 0.071 | 31.9 | > 100 | 20.2 | 0.7 (≈ 1.42 µM) | > 1000 | 47 | 4.8 | 9.6 | Activity (A-375 [20]): inactive

Reference: ChEMBL document CHEMBL1138960 (Bioorg Med Chem Lett, 2006)
